Experiments:
Assay type in all cases: cell-based
[1] = test system: LN18 glioblastoma cell line; test: In-vitro cell survival assay (Alamar blue), LN18; conditions: LN18, one day after compound addition
In short: (§1)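 Cells seeded at 2-5×10^3 per well, grown 2 days, then exposed to compound at 100, 10 or 1 uM (0.5% DMSO final) for one day. Alamar blue redox dye read as proliferation/viability, normalized to vehicle wells as percent decrease and converted to EC50.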

[2] = test system: HeLa cervical cancer cell line; test: In-vitro cell survival assay (Alamar blue), HeLa; conditions: one day after compound addition
In short: as §1

[3] = test system: U138 glioblastoma cell line; test: In-vitro cell survival assay (Alamar blue), U138; conditions: U138, one day after compound addition
In short: as §1

[4] = test system: U118 glioblastoma cell line; test: In-vitro cell survival assay (Alamar blue), U118; conditions: U118, one day after compound addition
Method: Five tumor-derived cell lines were treated with the ROS inhibitor compounds and cell survival was monitored to determine the cancer prohibition effects of the compounds. The cell lines included HeLa, a cervical cancer cell line, and four glioblastoma cell lines U138, U87, LN18, and U118. The basic protocol for the in-vitro cell survival assay is the same for all five cell lines. In particular, the cells were seeded in 96-well plates at 2-5×10^3 cells/well (cell line dependent) in culture medium. The cells were grown for 2 days before the compounds were dissolved in DMSO and added to final concentrations of 100 uM, 10 uM, or 1 uM (DMSO final concentration 0.5%). The cell culture was then assayed one day after the addition of the compounds. The assay used Alamar blue as a redox-sensitive dye that interrogates mitochondrial fitness of cells, and these assays provided a readout for cell proliferation and viability. The raw values were normalized to an average of several vehicle control wells and are presented as percent decrease in proliferation/viability, which is converted to half maximal effective concentration (EC50) values.

[5] = test system: U87 glioblastoma cell line; test: In-vitro cell survival assay (Alamar blue), U87; conditions: U87, one day after compound addition
In short: as §1

Row | SMILES | EC50 ([1]; Homo sapiens, LN-18, 24 h) [µM] | EC50 ([2]; Homo sapiens, 24 h) [µM] | EC50 ([3]; 24 h) [µM] | EC50 ([4]; 24 h) [µM] | EC50 ([5]; 24 h) [µM] | EC50 [1] [µM] | EC50 [2] [µM] | EC50 [3] [µM] | EC50 [4] [µM] | EC50 [5] [µM]
1 | Cc1cccc(Nc2nccc(Nc3cccc(C(=O)NCc4ccc(F)cc4)c3)n2)c1 [drawing 379] | 7 | 13 | 19 | 28 | 13 | – | – | – | – | –
2 | CCC(C)(C)NC(=O)c1cccc(Nc2nccc(Nc3ccc4ncsc4c3)n2)c1 [drawing 380] | 15 | 8 | 46 | 15 | 22 | – | – | – | – | –
3 | O=C(NC[C@H]1Cc2cc(-c3cncnc3)cc(Cl)c2O1)c1cccc(Cn2cccn2)c1 | > 100 | > 100 | > 100 | > 100 | > 100 | – | – | – | – | –
4 | Nc1nc(Nc2ccc(C(=O)N3CCCCCC3)cc2)cc(Nc2ccc3ncsc3c2)n1 [drawing 409] | 14 | 50 | > 100 | > 100 | 25 | – | – | – | – | –
5 | Cc1cccc(Nc2ccnc(Nc3cccc(C(=O)N4CC=CCC4)c3)n2)c1 [drawing 371] | 13 | 25 | > 100 | 28 | 17 | – | – | – | – | –
6 | COc1ccc(C(NC(=O)c2[nH]nc(-c3ccccc3)c2C)c2ccncc2)cc1 (centres unmarked) | – | – | – | – | – | 59 | > 100 | > 100 | > 100 | > 100
7 | CN1CCN(C(=O)c2cccc(Nc3nccc(Nc4ccc5ncsc5c4)n3)c2)CC1 [drawing 415] | 14 | 11 | 32 | 39 | 22 | – | – | – | – | –
8 | O=c1[nH][nH]c2nnc(-c3ccccc3)c(-c3ccccc3)c12 [drawing 394] | – | – | – | – | – | > 100 | > 100 | > 100 | > 100 | 28
9 | C[C@H](O)CN(C[C@H](C)O)C(=O)c1cccc(Nc2nccc(Nc3ccc4ncsc4c3)n2)c1 [drawing 420] | 31 | 14 | 19 | 31 | 21 | – | – | – | – | –
10 | O=C(NNc1cc(C(F)(F)F)ccc1Cl)c1cccnc1Oc1ccccc1 [drawing 390] | 58 | 59 | > 100 | > 100 | 96 | – | – | – | – | –
11 | O=c1c(O)c(-c2ccc(O)c(O)c2)oc2cc(O)cc(O)c12 [drawing 406] | 24 | 21 | > 100 | 33 | 36 | – | – | – | – | –
12 | Cc1nc2cc(C(=O)N[C@H](c3ccccc3)c3cccnc3)ccc2[nH]1 [drawing 398] | > 100 | > 100 | > 100 | > 100 | > 100 | – | – | – | – | –
13 | O=C(COc1ccccc1)NCC(c1cccs1)S(=O)(=O)c1ccc(Cl)cc1 (centres unmarked) [drawing 427] | 83 | > 100 | > 100 | 45 | 36 | – | – | – | – | –
14 | Clc1ccc(CNc2cc(-c3ccccc3)ncn2)cc1 [drawing 383] | 62 | > 100 | 62 | 33 | 38 | – | – | – | – | –
15 | NC(=O)c1c(NC(=O)[C@H]2CC(=O)N(c3ccccc3)C2)sc2c1CCCC2 [drawing 356] | > 100 | > 100 | > 100 | > 100 | > 100 | – | – | – | – | –
16 | Nc1ccc(Nc2nccc(Nc3cc(C4CC4)[nH]n3)n2)cc1 [drawing 436] | 10 | 0.4 | 1.9 | 30 | 5 | – | – | – | – | –
17 | O=C(c1cccc(-c2noc(-c3n[nH]c4c3CCCC4)n2)c1)N1CCCCC1 [drawing 385] | 62 | > 100 | 83 | 83 | 14 | – | – | – | – | –

Row | SMILES | EC50 ([1]; Homo sapiens, LN-18, 24 h) [µM] | EC50 ([2]; Homo sapiens, 24 h) [µM] | EC50 ([3]; 24 h) [µM] | EC50 ([4]; 24 h) [µM] | EC50 ([5]; 24 h) [µM] | EC50 [1] [µM] | EC50 [2] [µM] | EC50 [3] [µM] | EC50 [4] [µM] | EC50 [5] [µM]
18 | NS(=O)(=O)c1ccc(CCNC(=O)c2cc(-c3cccs3)nc3ccccc23)cc1 [drawing 358] | 25 | > 100 | > 100 | 29 | > 100 | – | – | – | – | –
19 | O=C(c1cccc(Nc2nccc(Nc3ccc4ncsc4c3)n2)c1)N1CCCCC1 [drawing 438] | 12 | 19 | > 100 | 52 | 20 | – | – | – | – | –
20 | O=C(c1ccccc1)n1nc(-c2ccco2)nc1NCc1ccccc1 | > 100 | > 100 | > 100 | > 100 | > 100 | – | – | – | – | –
21 | CC1=NNC(=O)/C1=C\c1cn(-c2ccccc2)nc1-c1ccccc1 [drawing 403] | 12 | 20 | 8 | 7 | 8 | – | – | – | – | –
22 | O=C(NCc1ccc(F)cc1)c1cccc(Nc2nccc(Nc3ccc4ncsc4c3)n2)c1 [drawing 423] | 9 | 6 | 18 | 24 | 11 | – | – | – | – | –
23 | CC(C)(CO)NC(=O)c1cccc(Nc2nccc(Nc3ccc4ncsc4c3)n2)c1 [drawing 408] | 10 | 12 | 16 | 18 | 17 | – | – | – | – | –
24 | c1cc(Nc2cc(C3CC3)[nH]n2)nc(Nc2ccc(NCc3cc(C4OCCO4)c(C4OCCO4)s3)cc2)n1 [drawing 437] | 14 | 13 | 14 | 18 | 13 | – | – | – | – | –
25 | CN(C)CC(C)(C)CNC(=O)c1cccc(Nc2nccc(Nc3ccc4ncsc4c3)n2)c1 [drawing 413] | 9 | 24 | 73 | 76 | 32 | – | – | – | – | –
26 | Clc1ccc2nc(NCc3ccccn3)nc(-c3ccccc3)c2c1 [drawing 357] | 16 | > 100 | > 100 | > 100 | 71 | – | – | – | – | –
27 | O=C1NCCN1CCN1C(=O)c2ccccc2N[C@H]1c1ccccc1 [drawing 391] | 36 | > 100 | > 100 | 38 | > 100 | – | – | – | – | –
28 | Clc1nccc(Nc2cc(C3CC3)[nH]n2)n1 [drawing 435] | > 100 | 45 | 63 | 31 | 29 | – | – | – | – | –
29 | Cc1ccc(F)cc1S(=O)(=O)Nc1cccc(C(=O)OCC(=O)NC2CCCCC2)c1 [drawing 404] | > 100 | > 100 | > 100 | > 100 | 33 | – | – | – | – | –
30 | CC(C)CN(CC(C)C)C(=O)c1cccc(Nc2nccc(Nc3ccc4ncsc4c3)n2)c1 [drawing 424] | 22 | 15 | 54 | > 100 | 17 | – | – | – | – | –
31 | O=C(NCc1ccco1)c1cccc(Nc2nccc(Nc3ccc4ncsc4c3)n2)c1 [drawing 376] | 10 | 10 | 35 | 18 | 21 | – | – | – | – | –
32 | COc1ccccc1-c1cc(C(F)F)n2ncc(C(=O)NCc3cccnc3)c2n1 [drawing 361] | 16 | > 100 | > 100 | > 100 | 22 | – | – | – | – | –
33 | COc1ccccc1C1C(C#N)=C(N)Oc2[nH]nc(C(F)(F)F)c21 (centres unmarked) | – | – | – | – | – | 62 | 90 | 84 | > 100 | 80
34 | COc1cccc(Nc2nc(N)c(C(=O)c3c(C)[nH]c4ccccc34)s2)c1 [drawing 384] | 10 | 72 | 19 | 16 | 15 | – | – | – | – | –

— patent US9963452B2, “Methods, compounds, and compositions for inhibition of ROS” (AUGUSTA PHARMACEUTICALS INC., priority 2013, dated 2018)
